Key:
Type in all cases: in vivo, NZB/W F1 mice
[1] = test system: accelerated severe lupus nephritis (ASLN) mouse model; assay: Urine protein, hematuria and renal function in ASLN mouse model
Procedure: (§1) An accelerated severe lupus nephritis (ASLN) mouse model was established in 8-week-old female NZB/W F1 mice by twice weekly intraperitoneal injection of lipopolysaccharide (LPS, 20 mg/kg body weight) (Sigma, NO, USA) as described in Shui et al., 2007 [51]. Two days after first dose of LPS for the ASLN induction, the mice were divided into two groups of more than 6 mice each and daily administrated with ginsenoside M1 or vehicle (normal saline) via oral gavage till mice sacrificed. 8-Week-old NZB/W F1 female mice (prior to onset of autoantibody production), injected with normal saline, were used as normal controls. All mice were killed at week 5 after disease induction. The tissue specimens of spleen, renal cortical tissue, blood, and urine were collected at the indicated times and stored appropriately before analysis. Urine samples were collected in metabolic cages every week and urine protein levels were measured, and serum samples were collected to measure serum levels of blood urea nitrogen (BUN) and creatinine (Cr) as described previously (Ka, S. M. et al. Decoy receptor 3 ameliorates an autoimmune crescentic glomerulonephritis model in mice. J Am Soc Nephrol 18:2473-2485; 2007).

[2] = test system: anti-dsDNA antibodies; assay: Serum anti-dsDNA antibodies (ELISA) in ASLN mice; settings: vs ASLN group, p<0.01, FIG. 3
Procedure: as §1, with “analysis.” for “analysis. Urine samples were collected in metabolic cages every week and urine protein levels were measured, and serum samples were collected to measure serum levels of blood urea nitrogen (BUN) and creatinine (Cr) as described previously (Ka, S. M. et al. Decoy receptor 3 ameliorates an autoimmune crescentic glomerulonephritis model in mice. J Am Soc Nephrol 18:2473-2485; 2007).”
Serum levels of anti-dsDNA antibodies were measured using an anti-mouse dsDNA enzyme-linked immunosorbent assay (ELISA) kit (Alpha Diagnostic, TX, USA) according to the manufacturer's instructions. The absorbance at 450 nm was measured using an ELISA plate reader (Bio-Tek, VT, USA).

[3] = test system: accelerated severe lupus nephritis (ASLN) mouse model; assay: Renal histopathology (H&E) in ASLN mouse model; settings: ASLN mice, H&E light microscopy, FIG. 2
Procedure: An accelerated severe lupus nephritis (ASLN) mouse model was established in 8-week-old female NZB/W F1 mice by twice weekly intraperitoneal injection of lipopolysaccharide (LPS, 20 mg/kg body weight) (Sigma, NO, USA) as described in Shui et al., 2007 [51]. Two days after first dose of LPS for the ASLN induction, the mice were divided into two groups of more than 6 mice each and daily administrated with ginsenoside M1 or vehicle (normal saline) via oral gavage till mice sacrificed. 8-Week-old NZB/W F1 female mice (prior to onset of autoantibody production), injected with normal saline, were used as normal controls. All mice were killed at week 5 after disease induction. […]
Renal tissues were formalin-fixed, embedded in paraffin, and sections (3 μm) prepared and stained with hematoxylin and eosin (H&E) for renal histopathology as described previously. Quantitative analysis was performed by optical microscopy (Olympus BX51, Reflected Fluorescence System, Japan). The examination of renal pathology and scoring were performed in a blinded manner by a pathologist, and the severity of renal lesions was scored. The percentage of glomeruli showing proliferation, neutrophil infiltration, crescent formation, fibrinoid necrosis, and periglomerular inflammation was calculated from at least 100 randomly sampled glomeruli.

[4] = test system: renal ROS production; assay: Reactive oxygen species (superoxide anion, DHE labeling) in kidney of ASLN mice
Procedure: (§2) An accelerated severe lupus nephritis (ASLN) mouse model was established in 8-week-old female NZB/W F1 mice by twice weekly intraperitoneal injection of lipopolysaccharide (LPS, 20 mg/kg body weight) (Sigma, NO, USA) as described in Shui et al., 2007 [51]. Two days after first dose of LPS for the ASLN induction, the mice were divided into two groups of more than 6 mice each and daily administrated with ginsenoside M1 or vehicle (normal saline) via oral gavage till mice sacrificed. 8-Week-old NZB/W F1 female mice (prior to onset of autoantibody production), injected with normal saline, were used as normal controls. All mice were killed at week 5 after disease induction. The tissue specimens of spleen, renal cortical tissue, blood, and urine were collected at the indicated times and stored appropriately before analysis.
Kidney in situ superoxide anion production was determined by dihydroethidium (DHE) labeling. Fluorescent images were quantified by counting the percentage of positive nuclei in the total nuclei per kidney cross-section. Superoxide anion levels in serum and kidney tissues were measured as described previously and the results expressed as reactive luminescence units (RLU) per 15 min per milligram dry weight (i.e., RLU/15 min/mg dry weight).

[5] = test system: T cells in splenocytes; assay: T cell proliferation in splenocytes of ASLN mice (3H-methyl thymidine); settings: anti-CD3 stimulated splenocytes, vs ASLN group, p<0.01, FIG. 6
Procedure: as §2
Splenocytes from the mice were prepared as described previously, then were cultured in triplicate in wells (2.5×10^5 cells/well) in 96-well flat-bottom microtiter plates previously coated overnight at 4° C. with 0.25 μg/ml anti-mouse CD3 (145-2C11) antibodies (BD Biosciences). After 48 h, the cultures were pulsed with […] of ^3H-methyl thymidine (Amersham Pharmacia Biotech, Piscataway, N.J.) and harvested 16-18 h later, and the incorporated ^3H-methyl thymidine was measured using a Top Count (Packard, PerkinElmer, Boston, Mass.) as described previously.

[6] = test system: Toll-like receptor (TLR)7 gene expression; assay: Real-time RT-PCR of renal cortex TLR7 mRNA in ASLN mice; settings: normalized to GAPDH, vs ASLN group, p<0.01, FIG. 7
Procedure: as §2
Renal cortex RNA was extracted using TRIzol reagent (Invitrogen) according to the manufacturer's instructions, and real-time reverse transcription-polymerase chain reaction (RT-PCR) was used to measure Toll-like receptor (TLR)7 gene expression. Real-time quantification was performed using a Bio-Rad iCycler iQ system according to the manufacturer's instructions. Amplifications were normalized to the values for GAPDH using the 2^−ΔCt method.

[7] = test system: serum inflammatory cytokines; assay: Serum cytokine detection (Cytometric Bead Array) in ASLN mice; settings: vs ASLN group
Procedure: as §2
To detect the level of IFN-γ, MCP-1, IL-12 p70, IL-6, TNF-α and IL-10 in serum by using BD Cytometric Bead Array Mouse Inflammation kit (BD Biosciences), according to the standard protocol, followed by flow cytometry (BD Biosciences).

CC(C)=CCC[C@](C)(O[C@@H]1OC(CO)[C@@H](O)[C@@H](O)C1O)[C@H]1CC[C@]2(C)C1[C@H](O)CC1[C@@]3(C)CC[C@H](O)C(C)(C)C3CC[C@]12C (stereo partly drawn) [ginsenoside M1, 20-O-β-D-glucopyranosyl-20(S)-protopanaxadiol]
serum level of BUN ([1]; ASLN mice, daily oral gavage, vs ASLN group, p<0.05, FIG. 1C): significantly decreased | serum level of creatinine ([1]; ASLN mice, daily oral gavage, vs ASLN group, p<0.05, FIG. 1D): significantly decreased | proteinuria (urine albumin/creatinine ratio) ([1]; ASLN mice, daily oral gavage, vs ASLN group, FIG. 1A): significantly decreased | hematuria ([1]; ASLN mice, daily oral gavage, vs ASLN group, FIG. 1B): significantly decreased | development of lupus nephritis (overall conclusion) ([1]; summary of the ASLN mouse study): effective in preventing development of lupus nephritis | serum anti-dsDNA antibody level [2]: significantly decreased | renal lesions (neutrocyte infiltration, crescent-like formation, periglomerular inflammation, tubular atrophy, proteinaceous casts, fibrinoid necrosis) ([3]; vs ASLN+vehicle, all p<0.005): greatly decreased | glomerular proliferation [3]: mild glomerular proliferation was present | renal ROS production (superoxide anion levels in renal tissues) ([4]; vs ASLN group, p<0.01, FIG. 4A): significantly decreased | DHE fluorescence intensity (in situ ROS production in kidney) ([4]; week 3, FIGS. 4B and 4C): very low | DHE fluorescence intensity (in situ ROS production in kidney) ([4]; week 5, FIGS. 4B and 4C): very low | proliferation of T cells in splenocytes [5]: significant decreased | renal mRNA levels of TLR7 [6]: significantly decreased | serum MCP-1 ([7]; p<0.005, FIG. 5B): significantly decreased | serum IL-12 p70 ([7]; p<0.005, FIG. 5C): significantly decreased | serum IL-6 ([7]; p<0.005, FIG. 5D): significantly decreased | serum TNFα ([7]; p<0.005, FIG. 5E): significantly decreased | serum IL-10 ([7]; p<0.005, FIG. 5F): significantly decreased | serum IFN-γ ([7]; p<0.01, FIG. 5A): significant decreased
